Assay: in vitro
Conditions: human, microsomes

Row | Structure (SMILES) | half-life [min]
1 | CCCN(CCC)c1c(C)nc(-c2c(C)cc(C)cc2OC)n(C)c1=O | 2.5
2 | CCCN(CCC)c1c(CC)nc(-c2c(C)cc(C)cc2OC)n(CC)c1=O | 2.3
3 | CCCN(CCC)c1c(C)nc(-c2c(OC)cccc2OC(F)F)n(CC)c1=O | 1.8
4 | CCCN(CCC)c1c(C)nc(-c2c(C)cc(C)cc2OC)n(CC(F)(F)F)c1=O | 3.4
5 | CCCN(CCC)c1c(C)nc(-c2c(C)cc(C)cc2C)n(CCN2CCCC2)c1=O | 4.2
6 | CCCN(CCC)c1c(C)nc(-c2ccc(OC)cc2OC)n(CCC)c1=O | 2.3
7 | CCCN(CCC)c1c(C)nc(-c2c(OC)cccc2OC(F)F)nc1O | 21.6
8 | CCCN(CCC)c1c(CC)nc(-c2c(C)cc(C)cc2OC)[nH]c1=O | 8.1
9 | CCCN(CCC)c1c(C)nc(-c2c(C)cc(C)cc2OC)nc1O | 15.5
10 | CCCN(CCC)c1c(C)nc(-c2ccc(OC)cc2OC)n(CCOC)c1=O | 1.3
11 | CCCN(CCC)c1c(C)nc(-c2ccc(OC)cc2OC)nc1O | 9.4
12 | CCCN(CCC)c1c(C)nc(-c2c(C)cc(C)cc2C)n(C)c1=O | 4.6
13 | CCCN(CCC)c1c(C)nc(-c2c(C)cc(C)cc2OC)n(CCC)c1=O | 3
14 | CCCN(CCC)c1c(C)nc(-c2c(OC)cccc2OC)nc1O | 13.3
15 | CCCN(CCC)c1c(C)nc(-c2ccc(Cl)cc2Cl)n(CC)c1=O | 1.9
16 | CCCN(CCC)c1c(C)nc(-c2c(C)cc(C)cc2OC)n(C(C)C)c1=O | 2.1
17 | CCCN(CCC)c1c(C)nc(-c2c(C)cc(C)cc2OC)n(CCF)c1=O | 3
18 | CCCN(CCC)c1c(C)nc(-c2c(C)cc(C)cc2C)nc1O | 7.5
19 | CCCN(CCC)c1c(C)nc(-c2ccc(OC)cc2OC)n(CC2CC2)c1=O | 1.5
20 | CCCN(CCC)c1c(C)nc(-c2c(C)cc(C)cc2C)n(CC)c1=O | 3.6

From ChEMBL document CHEMBL1146617, “2-Aryl-3,6-dialkyl-5-dialkylaminopyrimidin-4-ones as novel crf-1 receptor antagonists” (Bioorg Med Chem Lett, 2003)
